{"source": "patent US9585877B2", "about": "“Methods of maintaining, treating or improving cognitive function” (Forum Pharmaceuticals, Inc., priority 2012, dated 2017)", "type_in_all_cases": "in vivo, human", "key": {"[1]": {"tested_on": "subjects with mild-to-moderate Alzheimer's disease", "assay": "Clinical study, ADAS-Cog-11", "experimental": "(§1) A double-blind study of 3 doses of the Test Composition or placebo in subjects with mild-to-moderate Alzheimer's disease, with or without receiving a concomitant AChEI for 24 weeks (168 days) after a 7 day placebo run-in period.\n(§2) Total number of subjects in the safety population was 409 subjects that were dosed once-daily with a dosing-capsule for a period of 168 days. The subjects dosed, and the particular dosing, included: 104 subjects dosed with Placebo capsule; and 305 subjects dosed with Test Compound (104 subjects with 0.3 mg capsules; 101 subjects with 1 mg capsules; and 100 subjects with 2 mg capsules).\n(§3) The population included generally healthy male or female subjects, aged 50 to ≦85 years, with mild-to-moderate Alzheimer's disease, consistent with criteria defined by a Work Group of the National Institute of Neurological and Communicative Disorders and Stroke—Alzheimer's Disease and Related Disorders Association, of mild to moderate severity, with a Mini-Mental State Examination score (MMSE) 14 and ≦24, and a Clinical Dementia Rating Scale Sum of the Boxes (CDR-SB) score of 2. […] Subjects were required to be either receiving a stable dose of an AChEI (donepezil or rivastigmine) for at least 3 months before screening or not presently being treated with an AChEI or mementine for at least 30 days.\n(§4) Subjects with mild to moderate Alzheimer's disease receiving stable treatment with an AChEI (donepezil or rivastigmine: ‘add-on’ subjects) or not receiving an AChEI (de novo subjects′) received 0.3, 1, or 2 mg doses of Test Composition or placebo for up to 24 weeks (168 days) of double-blind treatment, after a 7-day single-blind, placebo run-in period to assess study drug compliance. A follow-up telephone contact was conducted approximately 15 days after the last dose of study drug for questions regarding safety.\nCognitive Part of the Alzheimer's Disease Assessment Scale (ADAS-Cog-11)\nThe ADAS-cog-11 test employed herein is based on the procedure developed in the adapted version of the Administration and Scoring Manual for the Alzheimer's Disease Assessment Scale, 1994 Revised Edition, Richard C. Mohs, Ph.D., © 1994 by The Mount Sinai School of Medicine, manual modified by Donald Connor, Ph.D., and Kimberly Schafer, M.S. (3/98).\nThe ADAS-cog-11 test includes the following test items: (1) Word Recall, (2) Naming Objects/Fingers, (3) Commands, (4) Construction Praxis, (5) Ideational Praxis, (6) Orientation, (7) Word Recognition, (8) Remembering Test Instructions, (9) Spoken Language Ability, (10) Word Finding Difficulty, and (11) Comprehension.\nThe ADAS-cog-11 total score ranges from 0 to 70 (higher scores indicate more severe impairment). A decrease from baseline indicates improvement."}, "[2]": {"tested_on": "subjects with mild-to-moderate Alzheimer's disease", "assay": "Clinical study, ADCS-ADL", "experimental": "as §1, §2, §3, §4\nAlzheimer's Disease Cooperative Study Group-Activities of Daily Living Scale (ADCS-ADL, or sometimes referred to as ADCS-ADL-23):\nThe ADCS-ADL-23 test employed herein is based on the procedure developed by Galasko D, Bennett D, Sano M, et al., Alz Dis Assoc Disord (1997) 11(2): S33-S39.\nThe ADCS-ADL test assesses the actual performance of specific actions and behaviors by a patient as observed by a caregiver/informant."}, "[3]": {"tested_on": "subjects with mild-to-moderate Alzheimer's disease", "assay": "Clinical study, Cognition composite score", "experimental": "as §1, §4\n(§5) These analyses were prespecified in the analytical plan (ITT population), and included the following: Cognition composite score (ADAS-cog Word Recall, Word Recognition, & Orientation, and COWAT and CFT), Memory composite score (ADAS-cog Word Recall, Word Recognition, and Orientation), and Executive Function composite score (COWAT and CFT).\n(§6) Composite Scores—Three composite scores were calculated: (1) Composite Cognition Score (ADAS-cog Word Recall, Word Recognition, and Orientation, COWAT and CFT); (2) Memory Composite Score (ADAS-cog Word Recall, Word Recognition, and Orientation); and (3) Executive Function Composite Score (COWAT and CFT).\n(§7) The composite score is only computed when all test scores are available."}, "[4]": {"tested_on": "subjects with mild-to-moderate Alzheimer's disease", "assay": "Clinical study, Memory composite score", "experimental": "as §1, §4, §5, §6, §7"}, "[5]": {"conditions": "2 mg versus placebo, over a 23 week period"}}, "data": [{"smiles": "Cl.O.O=C(N[C@H]1CN2CCC1CC2)c1cc2cccc(Cl)c2s1", "note": "[Test Compound, (R)-7-chloro-N-(quinuclidin-3-yl)benzo[b]thiophene-2-carboxamide, hydrochloride, monohydrate]", "values": [{"measurement": "ADAS-Cog-11 (Baseline was assigned the value of zero @ Week 0)", "setting": "[1]; 0.3 mg daily dose, Week 4", "result": "−0.3534"}, {"measurement": "ADAS-Cog-11 (Baseline was assigned the value of zero @ Week 0)", "setting": "[1]; 0.3 mg daily dose, Week 12", "result": "−0.2129"}, {"measurement": "ADAS-Cog-11 (Baseline was assigned the value of zero @ Week 0)", "setting": "[1]; 0.3 mg daily dose, Week 18", "result": "−0.067"}, {"measurement": "ADAS-Cog-11 (Baseline was assigned the value of zero @ Week 0)", "setting": "[1]; 0.3 mg daily dose, Week 23", "result": 0.2755}, {"measurement": "ADAS-Cog-11 (Baseline was assigned the value of zero @ Week 0)", "setting": "[1]; 1 mg daily dose, Week 4", "result": "−0.3412"}, {"measurement": "ADAS-Cog-11 (Baseline was assigned the value of zero @ Week 0)", "setting": "[1]; 1 mg daily dose, Week 12", "result": "−0.8317"}, {"measurement": "ADAS-Cog-11 (Baseline was assigned the value of zero @ Week 0)", "setting": "[1]; 1 mg daily dose, Week 18", "result": 0.1063}, {"measurement": "ADAS-Cog-11 (Baseline was assigned the value of zero @ Week 0)", "setting": "[1]; 1 mg daily dose, Week 23", "result": 0.3534}, {"measurement": "ADAS-Cog-11 (Baseline was assigned the value of zero @ Week 0)", "setting": "[1]; 2 mg daily dose, Week 4", "result": "−0.0031"}, {"measurement": "ADAS-Cog-11 (Baseline was assigned the value of zero @ Week 0)", "setting": "[1]; 2 mg daily dose, Week 12", "result": "−0.998"}, {"measurement": "ADAS-Cog-11 (Baseline was assigned the value of zero @ Week 0)", "setting": "[1]; 2 mg daily dose, Week 18", "result": "−1.1519"}, {"measurement": "ADAS-Cog-11 (Baseline was assigned the value of zero @ Week 0)", "setting": "[1]; 2 mg daily dose, Week 23", "result": "−1.1188"}, {"measurement": "ADAS-Cog 11 Effect Size", "setting": "[1]; 2 mg dose versus Placebo", "result": 0.34}, {"measurement": "ADCS-ADL (Baseline was assigned the value of zero @ Week 0)", "setting": "[2]; 0.3 mg daily dose, Week 4", "result": 0.07926}, {"measurement": "ADCS-ADL (Baseline was assigned the value of zero @ Week 0)", "setting": "[2]; 0.3 mg daily dose, Week 12", "result": "−0.5757"}, {"measurement": "ADCS-ADL (Baseline was assigned the value of zero @ Week 0)", "setting": "[2]; 0.3 mg daily dose, Week 18", "result": "−0.6255"}, {"measurement": "ADCS-ADL (Baseline was assigned the value of zero @ Week 0)", "setting": "[2]; 0.3 mg daily dose, Week 23", "result": "−1.8992"}, {"measurement": "ADCS-ADL (Baseline was assigned the value of zero @ Week 0)", "setting": "[2]; 1 mg daily dose, Week 4", "result": 0.509}, {"measurement": "ADCS-ADL (Baseline was assigned the value of zero @ Week 0)", "setting": "[2]; 1 mg daily dose, Week 12", "result": 0.9138}, {"measurement": "ADCS-ADL (Baseline was assigned the value of zero @ Week 0)", "setting": "[2]; 1 mg daily dose, Week 18", "result": 0.8306}, {"measurement": "ADCS-ADL (Baseline was assigned the value of zero @ Week 0)", "setting": "[2]; 1 mg daily dose, Week 23", "result": "−0.3467"}, {"measurement": "ADCS-ADL (Baseline was assigned the value of zero @ Week 0)", "setting": "[2]; 2 mg daily dose, Week 4", "result": 0.908}, {"measurement": "ADCS-ADL (Baseline was assigned the value of zero @ Week 0)", "setting": "[2]; 2 mg daily dose, Week 12", "result": 0.8426}, {"measurement": "ADCS-ADL (Baseline was assigned the value of zero @ Week 0)", "setting": "[2]; 2 mg daily dose, Week 18", "result": 0.8097}, {"measurement": "ADCS-ADL (Baseline was assigned the value of zero @ Week 0)", "setting": "[2]; 2 mg daily dose, Week 23", "result": 0.3166}, {"measurement": "ADCS-ADL Effect Size", "setting": "[2]; 2 mg dose versus Placebo", "result": 0.20}, {"measurement": "Cognition Composite Score (Baseline was assigned the value of zero @ Week 0)", "setting": "[3]; 0.3 mg daily dose, Week 4", "result": 0.0036}, {"measurement": "Cognition Composite Score (Baseline was assigned the value of zero @ Week 0)", "setting": "[3]; 0.3 mg daily dose, Week 12", "result": 0.0171}, {"measurement": "Cognition Composite Score (Baseline was assigned the value of zero @ Week 0)", "setting": "[3]; 0.3 mg daily dose, Week 18", "result": "−0.0245"}, {"measurement": "Cognition Composite Score (Baseline was assigned the value of zero @ Week 0)", "setting": "[3]; 0.3 mg daily dose, Week 23", "result": "−0.0451"}, {"measurement": "Cognition Composite Score (Baseline was assigned the value of zero @ Week 0)", "setting": "[3]; 1 mg daily dose, Week 4", "result": 0.0042}, {"measurement": "Cognition Composite Score (Baseline was assigned the value of zero @ Week 0)", "setting": "[3]; 1 mg daily dose, Week 12", "result": 0.0804}, {"measurement": "Cognition Composite Score (Baseline was assigned the value of zero @ Week 0)", "setting": "[3]; 1 mg daily dose, Week 18", "result": "−0.0102"}, {"measurement": "Cognition Composite Score (Baseline was assigned the value of zero @ Week 0)", "setting": "[3]; 1 mg daily dose, Week 23", "result": 0.0287}, {"measurement": "Cognition Composite Score (Baseline was assigned the value of zero @ Week 0)", "setting": "[3]; 2 mg daily dose, Week 4", "result": "−0.0084"}, {"measurement": "Cognition Composite Score (Baseline was assigned the value of zero @ Week 0)", "setting": "[3]; 2 mg daily dose, Week 12", "result": 0.0513}, {"measurement": "Cognition Composite Score (Baseline was assigned the value of zero @ Week 0)", "setting": "[3]; 2 mg daily dose, Week 18", "result": 0.0915}, {"measurement": "Cognition Composite Score (Baseline was assigned the value of zero @ Week 0)", "setting": "[3]; 2 mg daily dose, Week 23", "result": 0.1276}, {"measurement": "Cognition composite score Effect Size", "setting": "[3]; [5]", "result": 0.42}, {"measurement": "Memory Composite Score (Baseline was assigned the value of zero @ Week 0)", "setting": "[4]; 0.3 mg daily dose, Week 4", "result": "−0.0084"}, {"measurement": "Memory Composite Score (Baseline was assigned the value of zero @ Week 0)", "setting": "[4]; 0.3 mg daily dose, Week 12", "result": "−0.0108"}, {"measurement": "Memory Composite Score (Baseline was assigned the value of zero @ Week 0)", "setting": "[4]; 0.3 mg daily dose, Week 18", "result": "−0.0294"}, {"measurement": "Memory Composite Score (Baseline was assigned the value of zero @ Week 0)", "setting": "[4]; 0.3 mg daily dose, Week 23", "result": "−0.0645"}, {"measurement": "Memory Composite Score (Baseline was assigned the value of zero @ Week 0)", "setting": "[4]; 1 mg daily dose, Week 4", "result": "−0.0062"}, {"measurement": "Memory Composite Score (Baseline was assigned the value of zero @ Week 0)", "setting": "[4]; 1 mg daily dose, Week 12", "result": 0.08}, {"measurement": "Memory Composite Score (Baseline was assigned the value of zero @ Week 0)", "setting": "[4]; 1 mg daily dose, Week 18", "result": "−0.0456"}, {"measurement": "Memory Composite Score (Baseline was assigned the value of zero @ Week 0)", "setting": "[4]; 1 mg daily dose, Week 23", "result": 0.0113}, {"measurement": "Memory Composite Score (Baseline was assigned the value of zero @ Week 0)", "setting": "[4]; 2 mg daily dose, Week 4", "result": "−0.0032"}, {"measurement": "Memory Composite Score (Baseline was assigned the value of zero @ Week 0)", "setting": "[4]; 2 mg daily dose, Week 12", "result": 0.1021}, {"measurement": "Memory Composite Score (Baseline was assigned the value of zero @ Week 0)", "setting": "[4]; 2 mg daily dose, Week 18", "result": 0.117}, {"measurement": "Memory Composite Score (Baseline was assigned the value of zero @ Week 0)", "setting": "[4]; 2 mg daily dose, Week 23", "result": 0.169}, {"measurement": "Memory composite score Effect Size", "setting": "[4]; [5]", "result": 0.37}]}]}
